Here are results for six compounds from PMC11078746 (Nature, 2024).

A short description of series [1]: Rat PK. The series is classed as in vivo. The method, then: PK parameters were determined by non-compartmental analysis. Intravenous bolus studies in mouse, rat and dog were performed at 1, 1 and 0.1 mg per kg respectively (Extended Data Table 1).
The nature of series [2]: MDCK LE permeability. To be noted: dog, Fig. 1b. The series is classed as in vitro ADME, canine.
A short description of series [3]: logD / logP. The series is classed as physicochemical. To be noted: 1-octanol/water, pH 7.4, 1-octanol and water at pH 7.4.
Series [4] concerns the target T1, RecQ5 (Homo sapiens, UniProt O94762).
T1 construct: Human RecQ5-D1D2 (UniProt: O94762, Asp11–Trp453); His tag (N); made in house; host or cells: E. coli BL21(DE3), by the 'analogous procedure'
Nature of the series: RecQ selectivity ATPase assay. The series is classed as biochemical. The method, then:
(§1) DNA sequence allowing expression of human BLM-D1D2RH (UniProt P54132: Lys640–Gly1298) fused at the amino-terminal end to His tag followed by TEV-cleavage site, was inserted into a pET-derived vector. Protein expression was performed in BL21(DE3) cells after IPTG induction. Cells were collected and resuspended in lysis buffer (50 mM NaH2PO4, 300 mM NaCl, 1 mM TCEP, 20 mM imidazole, pH 8.0) supplemented with 2 mM MgCl2, benzonase and 0.5 mM AEBSF. Cells were lysed with an Emulsiflex C3 homogenizer. After ultracentrifugation, the lysate was loaded onto a HisTrap HP column. Bound protein was eluted with an imidazole gradient in lysis buffer. The amino-terminal tag was cleaved with TEV protease. Cleaved protein was loaded on Resource S ion-exchange column and eluted with a NaCl gradient in IEX buffer (20 mM Tris, 1 mM TCEP, 10% glycerol, 20 mM NaCl, pH 7.4). As a final step, BLM-D1D2RH protein was concentrated and loaded onto the Superdex 75 gel-filtration column pre-equilibrated with SEC buffer (50 mM Tris, 150 mM NaCl, 10% glycerol, pH 7.4). Eluted target protein was concentrated and frozen on dry ice. An analogous procedure was used for the expression and purification of human RecQ1-D1D2 (UniProt: P46063, Asp62–Ser482) and Human RecQ5-D1D2 (UniProt: O94762, Asp11–Trp453) proteins.
(§2) We used an ADP-Glo assay kit (Promega) to monitor ATP hydrolysis. A 45-oligonucleotide with the following sequence: […], referred to as FLAP26, as described previously[45] was purchased from IDT (Integrated DNA Technologies) and used as a DNA substrate. […] The reaction was started by addition of 2.5 μl of ssDNA substrate at 0.4 nM and incubated for 30 min at room temperature. The reaction was stopped with the addition of 5 μl of the first ADP-Glo reagent and incubated for 1 h to remove the excess amount of ATP. Then, 10 μl of ATP detection reagent was added and incubated for an additional hour before reading. The luminescence output was recorded using the Pherastar reader, with a 5 min delay before reading. Each concentration of compounds was tested in duplicates in the assay plate. The compound potency (IC50 value) was determined using custom software (Novartis Helios software application) with a four-parameter sigmoid Hill-curve model. After normalization of activity values for the wells to percentage inhibition (percentage inhibition = [(high control activity − sample activity)/(high control activity − low control activity)] × 100), IC50 fitting was performed from the duplicate determinations present on each plate.
(§3) The same ATPase assay protocol was used with the three other RecQ protein constructs to assess the selectivity over WRN. Time-course experiments were performed to determine the best enzymatic assay conditions for each RecQ protein. The experiments were run as described above with 10 nM RecQ1 protein construct with 10 nM ssDNA substrate, 2 nM BLM protein construct with 0.2 nM ssDNA substrate and 0.5 nM RecQ5 protein construct with 2 nM ssDNA substrate, respectively.

In series [5] the target is T2, RecQ1 (Homo sapiens, UniProt P46063).
T2 construct: human RecQ1-D1D2 (UniProt: P46063, Asp62–Ser482); His tag (N); made in house; host or cells: E. coli BL21(DE3), by the 'analogous procedure'
T2 sequence (P46063 62-482): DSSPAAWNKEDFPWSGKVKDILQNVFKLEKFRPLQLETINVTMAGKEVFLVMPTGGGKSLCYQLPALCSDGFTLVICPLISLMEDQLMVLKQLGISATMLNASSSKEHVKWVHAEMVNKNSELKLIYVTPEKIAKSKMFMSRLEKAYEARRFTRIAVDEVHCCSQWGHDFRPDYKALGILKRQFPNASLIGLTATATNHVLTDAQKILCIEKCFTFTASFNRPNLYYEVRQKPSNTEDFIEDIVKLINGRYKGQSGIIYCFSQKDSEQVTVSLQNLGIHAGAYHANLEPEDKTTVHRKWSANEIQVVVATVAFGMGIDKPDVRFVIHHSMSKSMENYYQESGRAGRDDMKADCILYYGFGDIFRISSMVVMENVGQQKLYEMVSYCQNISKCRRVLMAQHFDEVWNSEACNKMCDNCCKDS
The experiment in a line: RecQ selectivity ATPase assay. The series is classed as biochemical. The method, then: as §1, §2, §3

Series [6] concerns the target T3, WRN D1D2RH (Asn517–Pro1238) (Homo sapiens, UniProt Q14191).
T3 construct: 10 nM WRN D1D2RH (protein construct (Asn517–Pro1238)); His tag (N, cleaved yes); ZZ tag (N, cleaved yes); made in house; host or cells: Sf21 insect cells (baculovirus)
Nature of the series: Cy5-ATPγS binding assay using TR-FRET (ATP binding). The method, then: A ratio of F665 over F620 was then calculated to determine the FRET efficiency in each well. This assay protocol was used during hit optimization to build the initial structure–activity relationship and was also adapted to 1,536-well plates for screening purposes.
A general note: In TR-FRET formats the signal depends on donor and acceptor labels being close together.

Series [7] concerns the target T4, WRN (D1D2RH) (Homo sapiens, UniProt Q14191).
T4 construct: N-terminal Avi Tag-WRN(Asn517–Pro1238)
Nature of the series: Radioactive binding assay using an SPA (saturation binding). To be noted: 10 nM WRN. The method, then:
A total of 20 μl N-terminal Avi tag-WRN protein (Asn517-Pro1238) in 30 mM Tris pH 7.5, 30 mM NaCl, […], 0.02% BSA, 0.1% Pluronic F127, containing or not a fivefold higher concentration of dsDNA as compared to protein concentration, were incubated with 20 μl [^3H]-probe 6 (Extended Data Fig. 2f) for 1 h at room temperature. Then, 10 μl Streptavidin-coated PVT scintillation proximity assay (SPA) beads (Perkin Elmer, RPNQ0009) were added and the plate was read after 30 min in a TopCount luminescence reader (1 min, delay,1 min per well). The final assay concentrations were 10 nM WRN, 50 nM dsDNA (for the condition with dsDNA), a concentration range of radioligand as shown in the graphs and 50 μg per well of PVT SPA beads. The dsDNA was the same substrate as used in the DNA-unwinding assay (without labels).

Series [8] deals with T5, WRN full length (Homo sapiens, UniProt Q14191).
T5 construct: ATPase WRN full length: 0.02; made in house
T5 sequence (Q14191 whole entry): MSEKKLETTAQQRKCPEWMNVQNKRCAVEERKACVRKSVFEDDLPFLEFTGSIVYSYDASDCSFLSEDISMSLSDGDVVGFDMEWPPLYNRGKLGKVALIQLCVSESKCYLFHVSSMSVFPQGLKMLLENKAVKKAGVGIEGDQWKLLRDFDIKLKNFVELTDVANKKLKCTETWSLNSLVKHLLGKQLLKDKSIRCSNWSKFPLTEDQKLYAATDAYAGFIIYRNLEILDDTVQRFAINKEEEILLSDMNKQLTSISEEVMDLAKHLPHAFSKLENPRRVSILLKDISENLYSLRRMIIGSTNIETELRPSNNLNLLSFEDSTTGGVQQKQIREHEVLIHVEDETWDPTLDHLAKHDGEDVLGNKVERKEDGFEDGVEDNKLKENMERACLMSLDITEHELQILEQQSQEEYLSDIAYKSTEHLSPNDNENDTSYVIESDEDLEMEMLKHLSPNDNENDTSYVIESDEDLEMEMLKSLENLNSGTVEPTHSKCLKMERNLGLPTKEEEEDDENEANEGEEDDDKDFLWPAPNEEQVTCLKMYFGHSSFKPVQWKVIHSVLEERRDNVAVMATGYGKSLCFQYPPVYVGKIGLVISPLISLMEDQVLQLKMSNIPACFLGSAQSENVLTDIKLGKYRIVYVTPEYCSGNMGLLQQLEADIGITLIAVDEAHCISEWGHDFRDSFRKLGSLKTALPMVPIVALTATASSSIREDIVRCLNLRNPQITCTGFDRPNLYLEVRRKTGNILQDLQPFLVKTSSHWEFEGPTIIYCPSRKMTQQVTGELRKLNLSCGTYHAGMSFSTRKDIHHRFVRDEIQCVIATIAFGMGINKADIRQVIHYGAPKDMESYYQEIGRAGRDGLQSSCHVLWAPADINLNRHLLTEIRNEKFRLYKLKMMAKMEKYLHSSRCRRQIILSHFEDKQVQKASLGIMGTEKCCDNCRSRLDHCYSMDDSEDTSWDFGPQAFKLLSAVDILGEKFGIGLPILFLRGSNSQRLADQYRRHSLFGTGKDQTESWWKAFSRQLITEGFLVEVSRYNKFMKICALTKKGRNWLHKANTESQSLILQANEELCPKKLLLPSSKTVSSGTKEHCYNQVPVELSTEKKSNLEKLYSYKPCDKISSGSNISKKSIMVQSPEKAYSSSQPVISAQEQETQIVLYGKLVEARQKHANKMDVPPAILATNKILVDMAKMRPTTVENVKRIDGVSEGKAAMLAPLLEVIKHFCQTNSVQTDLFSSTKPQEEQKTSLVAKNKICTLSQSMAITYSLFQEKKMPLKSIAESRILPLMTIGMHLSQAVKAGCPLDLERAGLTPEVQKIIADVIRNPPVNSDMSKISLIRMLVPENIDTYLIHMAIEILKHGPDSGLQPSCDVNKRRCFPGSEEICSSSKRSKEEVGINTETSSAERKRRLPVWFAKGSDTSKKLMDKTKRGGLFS
Nature of the series: ATPase assay. To be noted: read-out: Biochemical IC50 ATPase WRN full length. The method, then:
as §2

The target of series [9] is T6, WRN D1D2 C727S (Homo sapiens, UniProt Q14191, C727S).
T6 construct: the minimal D1–D2 helicase core (WRN 517–945)
T6 sequence (Q14191 517-945 C727S): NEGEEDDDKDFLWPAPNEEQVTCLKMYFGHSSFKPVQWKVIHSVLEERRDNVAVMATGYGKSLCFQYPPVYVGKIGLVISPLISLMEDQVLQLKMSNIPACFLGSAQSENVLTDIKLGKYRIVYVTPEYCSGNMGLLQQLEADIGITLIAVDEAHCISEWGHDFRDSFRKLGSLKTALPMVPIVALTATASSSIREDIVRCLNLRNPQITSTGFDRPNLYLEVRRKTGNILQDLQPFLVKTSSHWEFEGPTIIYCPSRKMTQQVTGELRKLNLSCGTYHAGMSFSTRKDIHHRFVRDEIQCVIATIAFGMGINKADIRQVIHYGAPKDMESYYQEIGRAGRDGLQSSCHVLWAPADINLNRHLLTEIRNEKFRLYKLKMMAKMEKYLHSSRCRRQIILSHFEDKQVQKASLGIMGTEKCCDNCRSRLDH
The experiment in a line: ATPase assay. To be noted: read-out: Biochemical IC50 ATPase WRN D1D2 C727S. The method, then: as §2

Series [10] has as its target T7, WRN D1D2 WT (WRN 517–945) (Homo sapiens, UniProt Q14191).
T7 construct: the minimal D1–D2 helicase core (WRN 517–945)
Nature of the series: ATPase assay. To be noted: read-out: Biochemical IC50 ATPase WRN D1D2 WT. The method, then: as §2

Series [11] deals with T8, WRN D1D2 C727A (Homo sapiens, UniProt Q14191, C727A).
T8 construct: the minimal D1–D2 helicase core (WRN 517–945)
T8 sequence (Q14191 517-945 C727A): as the sequence (Q14191 517-945 C727S) above, with S211A counted along it
The experiment in a line: ATPase assay. To be noted: read-out: Biochemical IC50 ATPase WRN D1D2 C727A. The method, then:
as §2

Series [12] deals with T3, WRN D1D2RH (Asn517–Pro1238). The experiment in a line: ATPase activity analysis, ADP-Glo. The series is classed as biochemical. The method, then: as §2
In general terms: In ADP-Glo the light output rises with the ADP produced.

The test system of series [13] is WRN protein in MSI and MSS cells. The experiment in a line: WRN degradation (immunoblot, ELISA). The series is classed as cell-based, human. The method, then: A list of all of the antibodies is provided in Supplementary Table 2. […] The plates were washed in PBS and 200 µl per well of blocking reagent added (PBS, 0.05% Tween-20, 5% skimmed milk), and the plates were incubated for a minimum of 2 h at room temperature. […] The plates were then washed and 50 µl of secondary antibody per well diluted in blocking buffer was added and the plates were incubated overnight at 4 °C. The next day, 50 µl of tertiary antibody was added per well buffer and the plates were incubated for 2 h at room temperature. […] The plates were shaken and luminescence was detected immediately on the Synergy HT microplate reader.
Background: In western blotting, separated proteins are transferred to a membrane and probed.

In series [14] the test system is SW48 xenografts. Nature of the series: SW48 xenograft efficacy, HRO761, irinotecan and combination. To be noted: Irinotecan 60mg/kg. The series is classed as in vivo, mouse. The method, then: All animal studies were conducted in accordance with ethics and procedures covered by permit BS-2275 and BS-1975 issued by the Kantonales Veterinäramt Basel-Stadt and in strict adherence to guidelines of the Eidgenössisches Tierschutzgesetz and the Eidgenössische Tierschutzverordnung, Switzerland. All animal studies were approved by the internal ethics committee. All animals had access to food and water ad libitum and were identified with transponders. They were housed in a specific-pathogen-free facility in IVC racks under a 12 h–12 h light–dark cycle. To establish cell-line-derived xenograft models, 6–7-week-old female athymic nude (Crl:NU(NCr)-Foxn1^nu) or SCID-BEIGE (CB17.Cg-PrkdcscidLystbg-J/Crl) mice from Charles River were engrafted subcutaneously with 5 million tumour cells in HBSS (H6648, Sigma-Aldrich). For SNU-407, Lovo, IM95, RL95.2, Ishikawa and IGROV-1, the cells were concentrated in 50% Matrigel (354234, Corning). Patient-derived xenografts were induced and expanded by transplantation as previously described. […] For the efficacy experiment, mice were randomized into groups (n = 5–6) for a mean tumour size of 100–150 mm^3. […] Blood samples were collected on day 7 and 91. […] Tumour responses are reported with the measures of tumour volumes from the treatment start. […] Animals were randomized (n = 3) and tumour samples were collected at 0, 1, 4, 8 and 24 h on the first day and then collected 4 h after the last treatment on day 3, 8, 10, 14 (including a 24 h timepoint), 17 and 21. Tumours were excised, weighed, either frozen in liquid nitrogen and cryogenic dry pulverized with the CryoPrep system (model CP-02, Covaris) or processed to FFPE after fixation. […] On day 12, blood samples were collected for PK analysis. On the last day (3 h after the last treatment), tumours were excised, weighed, frozen in liquid nitrogen and cryogenic dry pulverized for PD analysis.

Where [15] appears, read: author rebuttal, compound numbers of an earlier manuscript version, read-out: Cy5-ATPγS binding assay in TR-FRET - IC50.

T3 sequence (Q14191 517-1238): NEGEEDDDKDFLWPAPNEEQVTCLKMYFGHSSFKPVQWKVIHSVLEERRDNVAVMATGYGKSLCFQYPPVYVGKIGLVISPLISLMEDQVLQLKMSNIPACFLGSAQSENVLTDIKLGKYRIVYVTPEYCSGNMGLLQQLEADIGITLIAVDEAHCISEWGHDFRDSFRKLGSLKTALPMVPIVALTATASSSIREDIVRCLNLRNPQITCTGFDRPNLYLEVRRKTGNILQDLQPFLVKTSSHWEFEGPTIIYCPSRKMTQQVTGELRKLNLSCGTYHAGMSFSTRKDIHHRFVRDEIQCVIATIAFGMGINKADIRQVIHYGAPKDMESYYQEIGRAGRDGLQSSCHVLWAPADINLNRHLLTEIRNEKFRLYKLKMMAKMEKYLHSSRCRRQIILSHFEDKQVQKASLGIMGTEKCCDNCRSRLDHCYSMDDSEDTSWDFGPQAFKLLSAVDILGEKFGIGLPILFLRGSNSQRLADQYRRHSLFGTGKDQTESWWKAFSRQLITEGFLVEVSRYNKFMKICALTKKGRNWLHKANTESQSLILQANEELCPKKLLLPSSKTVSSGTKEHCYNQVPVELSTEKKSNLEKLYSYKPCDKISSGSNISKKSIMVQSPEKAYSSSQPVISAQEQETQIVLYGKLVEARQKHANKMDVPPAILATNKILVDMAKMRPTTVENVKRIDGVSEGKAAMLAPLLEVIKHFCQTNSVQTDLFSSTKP
T4 sequence (Q14191 517-1238): as above
T7 sequence (Q14191 517-945): as the sequence (Q14191 517-945 C727S) above, with S211C counted along it
T1 sequence (O94762 11-453): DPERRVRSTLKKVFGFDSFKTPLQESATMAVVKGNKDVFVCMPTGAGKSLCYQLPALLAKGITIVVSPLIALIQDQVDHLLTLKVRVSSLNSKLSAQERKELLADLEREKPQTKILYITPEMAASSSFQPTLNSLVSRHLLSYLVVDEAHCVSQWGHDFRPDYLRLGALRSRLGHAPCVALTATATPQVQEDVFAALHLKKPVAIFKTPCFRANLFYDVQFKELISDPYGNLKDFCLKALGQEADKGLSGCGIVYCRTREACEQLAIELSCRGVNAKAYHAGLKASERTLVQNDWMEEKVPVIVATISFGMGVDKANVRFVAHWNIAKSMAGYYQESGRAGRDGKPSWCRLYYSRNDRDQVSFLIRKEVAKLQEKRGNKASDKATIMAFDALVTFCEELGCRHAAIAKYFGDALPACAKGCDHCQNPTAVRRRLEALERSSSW

A word on the Papp: it is a coefficient for how fast a substance crosses the barrier. A low value points to slow passage. For orientation: logD means lipophilicity at a set pH, counting ionised and neutral species. As a reminder, the IC50 is the concentration that inhibits the measured activity by half. Consider `Cc1c(N2CCN(C(=O)c3c(F)ccc(F)c3O)CC2)c(=O)n2nc(C3=CCOCC3)nc2n1CC(=O)Nc1ccc(C(F)(F)F)cc1` [compound 2], for which, in series [1], the “Rat PK, oral bioavailability (F)” value turned out to be 0 % F. The compound further had an apparent permeability (Papp) in [2] of 0.2 ×10⁻⁶ cm/s. This compound showed a logD in series [3] of 3.7. For the same compound, the 50% inhibitory concentration (IC50) in series [4] is more than 100000 nM; in [5] it was more than 100000 nM; in series [6] (setting [15]), 9 nM.

By Kd is commonly meant the concentration at which binding is half-saturated. For the compound `[3H]c1cc(C(F)(F)F)cc([3H])c1NC(=O)Cn1c(C)c(N2CCN(C(C)=O)CC2)c(=O)n2nc(N3CCN(C(C)=O)CC3)nc12` [compound 6], the results for the dissociation constant (Kd) in series [7] (in absence of dsDNA) and in series [7] (in presence of 50 nM dsDNA) were 10 nM and 14 nM, respectively.

Regarding `CC(=O)N1CCN(c2c(C)n(CC(=O)Nc3ccc(Cl)cc3)c3nc(N4CCN(C(=O)OC(C)(C)C)CC4)nn3c2=O)CC1` [compound 5], the IC50 in series [8] turned out to be 110 nM; in series [9] it was 25000 nM; in [10], 250 nM; in [11], 1100 nM; in series [12] (Extended Data Fig. 2b, read-out: Biochemical IC50 ATPase WRN D1D2RH), 270 nM; in series [6] (setting [15]) it was 13 nM. The “mode of action with regard to DNA” value in [12] (KDNA determination, 0.5 nM WRN D1D2RH, 100 µM ATP) is listed as “non-competitive mode of action”.

On to `CC[C@@]1(O)C(=O)OCc2c1cc1n(c2=O)Cc2cc3ccccc3nc2-1` [camptothecin, reference compound], for which, in series [13], the “WRN degradation, dependence on MSI/MSS status” value is reported as “irrespective of their MSI/MSS status”.

For the compound `Cc1cccc(NC(=O)Cn2c(C)cc(=O)n3nc(-c4cccs4)nc23)c1C` [compound 1], the 50% inhibitory concentration (IC50) in series [12] (Fig. 1b, ATP concentration not given, read-out: ATPase IC50) came out at 22000 nM; in [6] (WRN D1D2RH, Fig. 1b, Extended Data Fig. 2b, read-out: ATP binding IC50), 3000 nM; in [6] (setting [15]) it was 3300 nM.

`CCc1c2c(nc3ccc(OC(=O)N4CCC(N5CCCCC5)CC4)cc13)-c1cc3c(c(=O)n1C2)COC(=O)[C@]3(O)CC` [irinotecan, reference compound]: the “Mean TVol (mm3)” value in series [14] (day 0 post 1st dose) amounted to 254.88 mm3; in [14] (day 4 post 1st dose), 329.29 mm3; in series [14] (day 7 post 1st dose), 550.55 mm3; in series [14] (day 11 post 1st dose), 635.45 mm3; in series [14] (day 14 post 1st dose), 640.95 mm3; in [14] (day 18 post 1st dose), 669.98 mm3. In addition, the “Mean TVol (mm3)” value in series [14] (day 21 post 1st dose) was determined as 833.51 mm3.
